Here are results for three molecules from US7947726B2, “Non-steroidal ligands for the glucocorticoid receptor, and compositions thereof” (The Regents of the University of California, priority 2002, dated 2011).

Common to all, as to type: cell-based
Experiment [1] concerns Coll A. The experiment can be described thus: Coll A repression. Conditions: Table 5; for Emax: read-out: Repression Coll A % max repression; for EC50: read-out: Repression Coll A pot (EC50).
Experiment [2] concerns the target T1, GR (Rattus norvegicus, UniProt P06536).
T1 construct: expressed in transfected cells; gift of Keith Yamamoto
T1 sequence (P06536 1-795): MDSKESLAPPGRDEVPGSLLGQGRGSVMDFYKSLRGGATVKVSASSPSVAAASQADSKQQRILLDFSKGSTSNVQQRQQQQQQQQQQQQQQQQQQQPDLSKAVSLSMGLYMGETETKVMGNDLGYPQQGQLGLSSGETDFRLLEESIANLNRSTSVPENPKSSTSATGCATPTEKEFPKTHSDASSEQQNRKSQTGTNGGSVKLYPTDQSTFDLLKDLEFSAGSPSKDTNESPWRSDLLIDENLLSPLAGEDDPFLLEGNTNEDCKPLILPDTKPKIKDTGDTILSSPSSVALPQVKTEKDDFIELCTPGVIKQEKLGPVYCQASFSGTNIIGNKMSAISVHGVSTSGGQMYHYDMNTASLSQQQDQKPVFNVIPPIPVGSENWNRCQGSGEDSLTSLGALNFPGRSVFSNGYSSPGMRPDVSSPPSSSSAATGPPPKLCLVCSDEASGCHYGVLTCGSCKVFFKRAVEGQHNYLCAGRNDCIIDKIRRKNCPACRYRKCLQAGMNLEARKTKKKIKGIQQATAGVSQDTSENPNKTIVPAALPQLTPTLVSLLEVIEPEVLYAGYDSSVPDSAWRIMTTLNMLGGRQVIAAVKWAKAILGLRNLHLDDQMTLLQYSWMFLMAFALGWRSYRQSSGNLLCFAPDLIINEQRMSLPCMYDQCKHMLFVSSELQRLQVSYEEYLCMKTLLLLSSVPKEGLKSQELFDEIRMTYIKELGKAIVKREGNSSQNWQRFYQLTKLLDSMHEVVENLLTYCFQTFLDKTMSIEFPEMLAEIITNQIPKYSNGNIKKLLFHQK
The experiment can be described thus: AP-1 repression luciferase assay in U2OS cells stably transfected with rat GR. Conditions: Table 5, TPA-stimulated U2OS cells; for EC50: read-out: Repression AP-1 pot (EC50); for Emax: U2OS, 12 h, read-out: Repression AP-1 % max repression. The method, then: For API repression assays, U2OS cells stably transfected with rat GR were grown in similar media as for CV-1 cells with the exception of the FBS concentration, which was 10% and the only antibiotic was […]. Cells were plated and transfected in a similar fashion, except for plasmids, which in this case were 50 ng/well AP1-Luc and 10 ng/well β-galactosidase. Post-transfection, cells were incubated with either 50 ng/mL TPA (Phorbol 12-myristate 13-acetate), or 50 ng/mL TPA and various hormone dilutions in 10% charcoal treated FBS media. The cells were incubated for 12 h, and the lysis, β-galactosidase assay, and luciferase assay were performed as previously described.

The target in experiment [3] is T2, MR (Homo sapiens, UniProt P08235).
T2 sequence (P08235 1-984): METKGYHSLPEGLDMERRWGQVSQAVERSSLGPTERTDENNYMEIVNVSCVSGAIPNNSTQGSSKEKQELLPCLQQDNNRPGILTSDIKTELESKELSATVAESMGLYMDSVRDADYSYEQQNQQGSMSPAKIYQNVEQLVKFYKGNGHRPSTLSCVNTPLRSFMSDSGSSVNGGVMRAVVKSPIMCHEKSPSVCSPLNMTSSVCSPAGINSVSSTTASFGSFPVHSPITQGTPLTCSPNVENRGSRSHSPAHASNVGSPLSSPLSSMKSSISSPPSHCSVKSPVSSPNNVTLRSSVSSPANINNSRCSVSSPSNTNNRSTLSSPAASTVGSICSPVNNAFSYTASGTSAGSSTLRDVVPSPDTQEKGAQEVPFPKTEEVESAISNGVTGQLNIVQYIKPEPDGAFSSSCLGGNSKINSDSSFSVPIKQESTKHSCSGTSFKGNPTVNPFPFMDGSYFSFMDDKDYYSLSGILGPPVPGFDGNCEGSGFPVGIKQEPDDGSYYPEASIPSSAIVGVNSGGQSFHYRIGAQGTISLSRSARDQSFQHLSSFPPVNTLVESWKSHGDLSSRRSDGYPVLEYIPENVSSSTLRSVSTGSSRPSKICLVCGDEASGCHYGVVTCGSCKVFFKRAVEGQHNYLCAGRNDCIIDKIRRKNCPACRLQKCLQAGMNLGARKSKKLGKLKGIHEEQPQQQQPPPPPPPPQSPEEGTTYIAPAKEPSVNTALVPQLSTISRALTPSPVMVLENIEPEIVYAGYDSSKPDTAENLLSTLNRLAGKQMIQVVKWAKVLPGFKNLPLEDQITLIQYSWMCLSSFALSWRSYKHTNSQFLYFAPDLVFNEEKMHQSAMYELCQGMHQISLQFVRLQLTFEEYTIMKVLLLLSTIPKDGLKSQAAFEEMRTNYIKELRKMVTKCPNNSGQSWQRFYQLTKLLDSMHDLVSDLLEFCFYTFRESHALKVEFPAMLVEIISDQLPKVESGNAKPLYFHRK
The experiment can be described thus: MR activation (max fold activation). The following applies: Table 4.

Several values for one entry are separate records, joined by “and”; a condition that tells them apart may be missing. Equal values may be shown once.

By EC50 is commonly meant the midpoint of the concentration-response curve. Regarding `CC12Cc3cnn(-c4ccc(F)cc4)c3C=C1CCCC2C(O)c1ccsc1` (stereo not drawn) [Compound 238, [1-(4-Fluoro-phenyl)-4a-methyl-4,4a-5,6,7,8-hexahydro-1H-benzo[f]indazol-5-yl]-thiophen-3-yl-methanol], in experiment [1], the Emax was determined as 68% and the EC50 worked out at 27 nM. In addition, in experiment [2], the EC50 is 19.1 nM and 14.7 nM; the Emax amounted to 75%. Moreover, the “MR max fold activation” value in experiment [3] is given as 6.2 ± 0.9.

On to `CC12Cc3cnn(-c4ccc(F)cc4)c3C=C1CCCC2C(O)c1cccc2[nH]ccc12` (stereo not drawn) [Compound 237, [1-(4-Fluoro-phenyl)-4a-methyl-4,4a,5,6,7,8-hexahydro-1H-benzo[f]indazol-5-yl]-(1H-indol-4-yl)-methanol], for which the Emax was determined as 75% in experiment [1] and 80% in experiment [2]. For the same molecule, the EC50 came out at 8.1 nM in experiment [1] and 4.9 nM in experiment [2]. Also, the “MR max fold activation” value in experiment [3] was found to be 5.0 ± 1.5.

On to `Cc1cc(O)cc(C)c1C(O)C1CCCC2=Cc3c(cnn3-c3ccc(F)cc3)CC21C` (stereo not drawn) [Compound 227, 4-{[1-(4-Fluoro-phenyl)-4a-methyl-4,4a,5,6,7,8-hexahydro-1H-benzo[f]indazol-5-yl]-hydroxy-methyl}-3,5-dimethyl-phenol], for which, in experiment [1], the Emax is 75% and the EC50 came to 6.9 nM. In experiment [2], the EC50 came to 6 nM and the Emax was determined as 77%. Besides, the “MR max fold activation” value in experiment [3] is listed as 3.2 ± 0.9.
